# Like-named read-outs stand apart in the source and are kept apart here.
# What was measured:
# [1] = system: AMP-evolved E. coli lines; assay: Cross-resistance / collateral sensitivity: relative MIC change of 38 laboratory-evolved AMP-resistant lines vs parental strain; type: cell-based, Escherichia coli; settings: measured here
# From the text: Here, we extended this dataset by measuring susceptibility changes of the same evolved lines to four additional AMPs using identical protocols to represent AMPs from all four clusters (Supplementary Fig. 15a, see also Methods). Overall, the resulting dataset of susceptibility profiles provides a comprehensive map of cross-resistance and collateral sensitivity between AMPs representing various modes of action.
# To characterize the cross-resistance of the 38 E. coli lineages we obtained relative MIC changes that are, the MIC values of the evolved lines compared to these of the parental strain, from two data sources. First, we used already measured relative MIC changes from Spohn et al. Supplementary data 4[20]. […] Second, we extended this dataset by measuring the relative MIC changes of the same evolved lines to four additional AMPs using identical protocol. […] In this way, AMPs from each cluster were represented in the dataset.
# Supplementary Figure 15. […] Relative change in MIC was determined for each evolved line by comparing its MIC to the ancestral cell line (control). […] CAP18-adaped lines were not included in the analysis because CAP18 is known as a membrane-targeting AMP in the literature. c, Cross-resistance interactions are enriched between membrane-targeting AMPs that are in the same chemical-genetic clusters (i.e. AMP pairs within C1 and within C2 clusters) (Significant difference: ** P = 0.0082 from two-sided Fisher’s exact test, n = 61 and 62 for within cluster and between clusters, respectively). […] Source data are provided as a Source Data file.
# [2] = system: bacterial species in which the gene showed activity; settings: cited from earlier work
sequence,measurement,setting,value
"RRRPRPPYLPRPRPPPFFPPRLPPRIPPGFPPRFPPRFP [PR39, PR-39, cathelicidin, source pig; cluster C4]",Relative change in MIC (MIC of the AMP-adpated line / MIC of the ancestral strain),[1]; AMP-adapted line BAC5_3,1.32
same,Relative change in MIC (MIC of the AMP-adpated line / MIC of the ancestral strain),[1]; AMP-adapted line BAC5_5,1.464
same,Relative change in MIC (MIC of the AMP-adpated line / MIC of the ancestral strain),[1]; AMP-adapted line BAC5_7,1.584
same,Relative change in MIC (MIC of the AMP-adpated line / MIC of the ancestral strain),[1]; AMP-adapted line BAC5_10,1.57
same,Relative change in MIC (MIC of the AMP-adpated line / MIC of the ancestral strain),[1]; AMP-adapted line CAP18_2,1
same,Relative change in MIC (MIC of the AMP-adpated line / MIC of the ancestral strain),[1]; AMP-adapted line CAP18_5,0.915
same,Relative change in MIC (MIC of the AMP-adpated line / MIC of the ancestral strain),[1]; AMP-adapted line CAP18_6,0.83
same,Relative change in MIC (MIC of the AMP-adpated line / MIC of the ancestral strain),[1]; AMP-adapted line CAP18_8,1
same,Relative change in MIC (MIC of the AMP-adpated line / MIC of the ancestral strain),[1]; AMP-adapted line CAP18_10,0.83
same,Relative change in MIC (MIC of the AMP-adpated line / MIC of the ancestral strain),[1]; AMP-adapted line HBD3_3,1
same,Relative change in MIC (MIC of the AMP-adpated line / MIC of the ancestral strain),[1]; AMP-adapted line HBD3_6,0.915
same,Relative change in MIC (MIC of the AMP-adpated line / MIC of the ancestral strain),[1]; AMP-adapted line HBD3_8,1.1
same,Relative change in MIC (MIC of the AMP-adpated line / MIC of the ancestral strain),[1]; AMP-adapted line HBD3_10,1.1
same,Relative change in MIC (MIC of the AMP-adpated line / MIC of the ancestral strain),[1]; AMP-adapted line LL37_1,1.1
same,Relative change in MIC (MIC of the AMP-adpated line / MIC of the ancestral strain),[1]; AMP-adapted line LL37_3,1.1
same,Relative change in MIC (MIC of the AMP-adpated line / MIC of the ancestral strain),[1]; AMP-adapted line LL37_6,1.1
same,Relative change in MIC (MIC of the AMP-adpated line / MIC of the ancestral strain),[1]; AMP-adapted line LL37_7,1.2
same,Relative change in MIC (MIC of the AMP-adpated line / MIC of the ancestral strain),[1]; AMP-adapted line LL37_10,0.915
same,Relative change in MIC (MIC of the AMP-adpated line / MIC of the ancestral strain),[1]; AMP-adapted line PEX_1,1
same,Relative change in MIC (MIC of the AMP-adpated line / MIC of the ancestral strain),[1]; AMP-adapted line PEX_4,1
same,Relative change in MIC (MIC of the AMP-adpated line / MIC of the ancestral strain),[1]; AMP-adapted line PEX_5,0.915
same,Relative change in MIC (MIC of the AMP-adpated line / MIC of the ancestral strain),[1]; AMP-adapted line PEX_6,1
same,Relative change in MIC (MIC of the AMP-adpated line / MIC of the ancestral strain),[1]; AMP-adapted line PEX_7,1
same,Relative change in MIC (MIC of the AMP-adpated line / MIC of the ancestral strain),[1]; AMP-adapted line PROA_2,1
same,Relative change in MIC (MIC of the AMP-adpated line / MIC of the ancestral strain),[1]; AMP-adapted line PROA_3,0.915
same,Relative change in MIC (MIC of the AMP-adpated line / MIC of the ancestral strain),[1]; AMP-adapted line PROA_7,1
same,Relative change in MIC (MIC of the AMP-adpated line / MIC of the ancestral strain),[1]; AMP-adapted line PROA_8,1
same,Relative change in MIC (MIC of the AMP-adpated line / MIC of the ancestral strain),[1]; AMP-adapted line PROA_9,1
same,Relative change in MIC (MIC of the AMP-adpated line / MIC of the ancestral strain),[1]; AMP-adapted line PXB_2,1.728
same,Relative change in MIC (MIC of the AMP-adpated line / MIC of the ancestral strain),[1]; AMP-adapted line PXB_5,1.44
same,Relative change in MIC (MIC of the AMP-adpated line / MIC of the ancestral strain),[1]; AMP-adapted line PXB_6,1.728
same,Relative change in MIC (MIC of the AMP-adpated line / MIC of the ancestral strain),[1]; AMP-adapted line PXB_8,1.44
same,Relative change in MIC (MIC of the AMP-adpated line / MIC of the ancestral strain),[1]; AMP-adapted line PXB_10,1
same,Gene that modulates bacterial susceptibility to the AMP,"[2]; Salmonella enterica serovar Typhimurium, ref http://aac.asm.org/content/52/8/2734.full.pdf+html",sbmA
"KTKKKFLKKT [PXB, Polymyxin B, from Bacillus polymyxa, purchased from Sigma-Aldrich; disrupts cell membrane; cluster C1]",Gene that modulates bacterial susceptibility to the AMP,"[2]; Acinetobacter baumannii, ref http://aac.asm.org/content/54/12/4971.full.pdf+html",lpxA
same,Gene that modulates bacterial susceptibility to the AMP,"[2]; Bordetella pertussis, ref http://www.ncbi.nlm.nih.gov/pmc/articles/PMC4136009/","lgmA, IgmB, IgmC"
same,Gene that modulates bacterial susceptibility to the AMP,"[2]; Burkholderia genus, ref http://www.ncbi.nlm.nih.gov/pmc/articles/PMC3143681/, http://www.ncbi.nlm.nih.gov/pmc/articles/PMC1428139/",waaF
same,Gene that modulates bacterial susceptibility to the AMP,"[2]; Campylobacter jejuni, ref http://www.ncbi.nlm.nih.gov/pmc/articles/PMC3270987/",eptC
same,Gene that modulates bacterial susceptibility to the AMP,"[2]; Escherichia coli, Klebsiella pneumoniae, Pseudomonas aeruginosa, Kluyvera ascorbata, ref http://www.ncbi.nlm.nih.gov/pubmed/26603172, http://ac.els-cdn.com/S1473309915005332/1-s2.0-S1473309915005332-main.pdf?_tid=16a7f944-6944-11e6-8a9d-00000aab0f02&acdnat=1471965364_7f481026d1a49114e23adef4a6b4d1a9, https://www.ncbi.nlm.nih.gov/pmc/articles/PMC5119035/",mcr1
same,Gene that modulates bacterial susceptibility to the AMP,"[2]; Escherichia coli, Salmonella sp., Pseudomonas aeruginosa, ref https://ac.els-cdn.com/S0923250806000532/1-s2.0-S0923250806000532-main.pdf?_tid=eafe08ea-d0fa-11e7-b1a6-00000aacb35f&acdnat=1511516356_5b16dbb059dc1cc9bc53dd73456e437d",etk
same,Gene that modulates bacterial susceptibility to the AMP,"[2]; Escherichia coli, ref http://www.jbc.org/content/287/46/38778.full.pdf, http://www.jbc.org/content/early/2007/10/10/jbc.M706172200.full.pdf, https://onlinelibrary.wiley.com/doi/epdf/10.1111/j.1365-2958.2012.08154.x",arnD
same,Gene that modulates bacterial susceptibility to the AMP,"[2]; Helicobacter pylori, ref http://www.ncbi.nlm.nih.gov/pmc/articles/PMC1482963/",lpxE
same,Gene that modulates bacterial susceptibility to the AMP,"[2]; Klebsiella pneumoniae, ref http://iai.asm.org/content/72/12/7107.full.pdf+html",cps
same,Gene that modulates bacterial susceptibility to the AMP,"[2]; Klebsiella pneumoniae, ref http://jac.oxfordjournals.org/content/70/1/75.full.pdf+html, http://embomolmed.embopress.org/content/9/4/430.long",mgrB
same,Gene that modulates bacterial susceptibility to the AMP,"[2]; Klebsiella pneumoniae, ref http://www.ncbi.nlm.nih.gov/pmc/articles/PMC2798511/",acrB
same,Gene that modulates bacterial susceptibility to the AMP,"[2]; Neisseria meningitidis, Neisseria gonorrhoeae, ref http://www.ncbi.nlm.nih.gov/pmc/articles/PMC1196002/","mtrC, mtrD, mtrE"
same,Gene that modulates bacterial susceptibility to the AMP,"[2]; Neisseria meningitidis, ref https://www.ncbi.nlm.nih.gov/pmc/articles/PMC1196002/",lptA
same,Gene that modulates bacterial susceptibility to the AMP,"[2]; Neisseria meningitidis, ref https://www.ncbi.nlm.nih.gov/pmc/articles/PMC1196002/pdf/0005-05.pdf",lpxL1
same,Gene that modulates bacterial susceptibility to the AMP,"[2]; Parasutterella excrementihominis, ref https://utmb.influuent.utsystem.edu/en/publications/quorum-sensing-escherichia-coli-regulators-b-and-c-qsebc-a-novel-",qseB (pmrA)
same,Gene that modulates bacterial susceptibility to the AMP,"[2]; Porphyromonas gingivalis, ref https://www.nature.com/articles/ijos200918.pdf?origin=ppub, https://www.ncbi.nlm.nih.gov/pmc/articles/PMC4388331/pdf/nihms-656041.pdf",lpxF
same,Gene that modulates bacterial susceptibility to the AMP,"[2]; Pseudomonas aeruginosa, Salmonella typhimurium, Escherichia coli, ref http://www.sciencemag.org/content/286/5444/1561.full.pdf, http://onlinelibrary.wiley.com/doi/10.1111/j.1365-2958.1995.tb02299.x/abstract, http://www.ncbi.nlm.nih.gov/pmc/articles/PMC50673/pdf/pnas01098-0300.pdf, https://jb.asm.org/content/jb/182/14/4077.full.pdf",phoP (PhoPQ)
same,Gene that modulates bacterial susceptibility to the AMP,"[2]; Pseudomonas aeruginosa, gene colR (ColRS), ref https://www.ncbi.nlm.nih.gov/pmc/articles/PMC4244539/pdf/fmicb-05-00643.pdf, http://aac.asm.org/content/57/5/2204.full.pdf+html",colR (ColRS)
same,Gene that modulates bacterial susceptibility to the AMP,"[2]; Pseudomonas aeruginosa, gene cprR (CprRS), ref https://www.ncbi.nlm.nih.gov/pmc/articles/PMC4244539/pdf/fmicb-05-00643.pdf, http://aac.asm.org/content/57/5/2204.full.pdf+html",cprR (CprRS)
same,Gene that modulates bacterial susceptibility to the AMP,"[2]; Pseudomonas aeruginosa, ref http://aac.asm.org/content/54/8/3372.full.pdf+html, http://aac.asm.org/content/56/12/6212.full.pdf+html, http://aac.asm.org/content/57/5/2204.full.pdf+html",parR (ParR-ParS)
same,Gene that modulates bacterial susceptibility to the AMP,"[2]; Pseudomonas aeruginosa, ref http://jb.asm.org/content/186/2/575.long",pmrB
same,Gene that modulates bacterial susceptibility to the AMP,"[2]; Salmonella enterica serovar Typhimurium, ref http://www.jbc.org/content/279/37/38618.long, https://onlinelibrary.wiley.com/doi/epdf/10.1111/j.1365-2958.2005.04553.x",slyA
same,Gene that modulates bacterial susceptibility to the AMP,"[2]; Salmonella enterica serovar Typhimurium, ref http://www.jbc.org/content/279/37/38618.long",ugtL
same,Gene that modulates bacterial susceptibility to the AMP,"[2]; Salmonella enterica serovar Typhimurium, ref http://www.microbiologyresearch.org/docserver/fulltext/micro/154/2/666.pdf?expires=1487718158&id=id&accname=guest&checksum=D8B884D02A8B2A8619216A48E0826377",yejA
same,Gene that modulates bacterial susceptibility to the AMP,"[2]; Salmonella sp., ref https://www.ncbi.nlm.nih.gov/pmc/articles/PMC2904496/",eptA
same,Gene that modulates bacterial susceptibility to the AMP,"[2]; Salmonella typhimurium, Escherichia coli, ref https://www.ncbi.nlm.nih.gov/pmc/articles/PMC3037666/, https://www.ncbi.nlm.nih.gov/pmc/articles/PMC3837802/pdf/zam7770.pdf",cpxA (CpxA/CpxR)
same,Gene that modulates bacterial susceptibility to the AMP,"[2]; Salmonella typhimurium, gene pmrF (arnT operon), ref http://www.jbc.org/content/287/46/38778.full.pdf",pmrF (arnT operon)
same,Gene that modulates bacterial susceptibility to the AMP,"[2]; Salmonella typhimurium, gene yfbG (arnA), ref http://www.jbc.org/content/287/46/38778.full.pdf",yfbG (arnA)
same,Gene that modulates bacterial susceptibility to the AMP,"[2]; Salmonella typhimurium, ref https://www.ncbi.nlm.nih.gov/pmc/articles/PMC205548/pdf/jbacter00030-0157.pdf",pmrD
same,Gene that modulates bacterial susceptibility to the AMP,"[2]; Staphylococcus aureus, ref http://aac.asm.org/content/51/8/2679.full.pdf+html",graR(GraRS)
same,Gene that modulates bacterial susceptibility to the AMP,"[2]; Vibrio cholerae, ref http://pubs.acs.org/doi/pdf/10.1021/cb500438x","almE, almF, almG"
same,Gene that modulates bacterial susceptibility to the AMP,"[2]; Yersinia sp., ref http://www.helsinki.fi/yersinia/pdf_own/Bengo_MolMic_2000_37_67.pdf",rosA
same,Gene that modulates bacterial susceptibility to the AMP,[2],rcp (pagP) and pmm and bveA (BMEII0681)
same,Gene that modulates bacterial susceptibility to the AMP,"[2]; pathogenic or commensal Enterobacteriaceae species, gene rcsB, ref https://www.ncbi.nlm.nih.gov/pmc/articles/PMC2895427/pdf/nihms212407.pdf",rcsB
same,Gene that modulates bacterial susceptibility to the AMP,"[2]; pathogenic or commensal Enterobacteriaceae species, gene rcsC, ref https://www.ncbi.nlm.nih.gov/pmc/articles/PMC2895427/pdf/nihms212407.pdf",rcsC
same,Gene that modulates bacterial susceptibility to the AMP,"[2]; pathogenic or commensal Enterobacteriaceae species, gene rcsD, ref https://www.ncbi.nlm.nih.gov/pmc/articles/PMC2895427/pdf/nihms212407.pdf",rcsD

# From PMC6915728 (Nature Communications, 2019)
